Read-outs that look alike come from different tables or passages of the source. Blank lines part the entries; values can stand above or below the compound they belong to. Residues, ends and D or L forms follow the SMILES beside them. No end group written: not given here. *: point of attachment. X1 = CCCC[C@@H](CCS(C)(=O)=O)Nc1nc(N)nc(C)c1Cc1cc(CC(=O)*)ccc1OC
Biological target: T1, human TLR7 (hTLR7) (Homo sapiens, UniProt Q9NYK1)
T1 construct: host or cells: HEK293 (HEK-Blue hTLR7)
T1 sequence (Q9NYK1 27-1049): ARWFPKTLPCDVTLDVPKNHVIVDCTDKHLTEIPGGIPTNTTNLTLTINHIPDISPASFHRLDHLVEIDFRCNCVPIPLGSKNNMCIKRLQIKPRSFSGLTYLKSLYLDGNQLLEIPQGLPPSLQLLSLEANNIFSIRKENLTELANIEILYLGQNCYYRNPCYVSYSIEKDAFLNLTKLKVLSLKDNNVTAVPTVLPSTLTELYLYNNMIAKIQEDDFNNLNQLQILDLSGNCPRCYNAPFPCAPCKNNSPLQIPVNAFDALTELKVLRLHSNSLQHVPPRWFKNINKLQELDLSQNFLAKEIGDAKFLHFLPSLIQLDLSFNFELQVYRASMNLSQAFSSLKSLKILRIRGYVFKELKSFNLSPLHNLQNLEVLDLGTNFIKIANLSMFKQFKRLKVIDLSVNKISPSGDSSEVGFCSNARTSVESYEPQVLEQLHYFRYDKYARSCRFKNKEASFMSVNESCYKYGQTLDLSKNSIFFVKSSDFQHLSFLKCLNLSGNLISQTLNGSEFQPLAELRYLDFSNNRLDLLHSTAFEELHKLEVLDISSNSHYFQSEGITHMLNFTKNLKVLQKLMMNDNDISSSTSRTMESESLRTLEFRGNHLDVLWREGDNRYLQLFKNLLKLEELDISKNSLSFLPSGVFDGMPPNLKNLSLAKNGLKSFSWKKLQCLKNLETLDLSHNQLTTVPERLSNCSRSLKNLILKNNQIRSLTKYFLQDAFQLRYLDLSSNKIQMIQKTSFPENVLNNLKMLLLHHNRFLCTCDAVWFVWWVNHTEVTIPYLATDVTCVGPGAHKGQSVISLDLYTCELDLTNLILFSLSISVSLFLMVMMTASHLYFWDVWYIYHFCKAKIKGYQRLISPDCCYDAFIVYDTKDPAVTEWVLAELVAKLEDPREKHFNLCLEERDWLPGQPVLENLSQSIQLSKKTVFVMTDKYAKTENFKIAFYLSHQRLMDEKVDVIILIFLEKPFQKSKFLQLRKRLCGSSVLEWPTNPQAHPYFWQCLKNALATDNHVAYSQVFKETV
Assay: HEK-Blue hTLR7 cell assay (NF-kB/AP-1 driven SEAP reporter)
Type: cell-based
Excerpt: HEK-Blue™ TLR7 cells were purchased from Invivogen (San Diego, Calif.). The following description was taken from the product information sheet.
“HEK-Blue™ hTLR7 cells are designed for studying the stimulation of human TLR7 (hTLR7) by monitoring the activation of NF-kB. HEK-Blue™ hTLR7 cells were obtained by co-transfection of the hTLR7 gene and an optimized secreted embryonic alkaline phosphatase (SEAP) reporter gene into HEK293 cells. The SEAP reporter gene is placed under the control of the IFN-b minimal promoter fused to five NF-kB and AP-1-binding sites. Stimulation with a TLR7 ligand activates NF-kB and AP-1 which induce the production of SEAP, which is detected by the HEK-Blue™ Detection cell culture medium.”
A typical assay protocol involved the following steps:
1. Cells were cultured according to the product information sheet.
2. 10 mM compound stock in DMSO were first diluted to 3 mM and then 3-fold serially diluted using DMSO to afford a 10-pt dilution.
3. 3 μl of the diluted DMSO were added to 57 μl HEK-Blue™ Detection media for a further 20-fold dilution.
4. 10 μl of the diluted compound in assay media were added into 40 μl cell culture (in HEK-Blue™ Detection media) in 384-well plate. Final cell concentration=8,000 cells per well.
5. The plates were incubated at 37° C. in 5% CO2 for 16 h. SEAP was determined using a spectrophotometer at 620-655 nm.

[1] = HEK TLR7 activity of Compound 1-peptide conjugates, read-out: EC50, Peptide - Compound 1 Conjugate
[2] = HEK TLR7 activity of unconjugated (naked) peptides, read-out: EC50, Peptide without Compound 1
[3] = HEK-Blue hTLR7 cells, 16 h incubation, SEAP read at 620-655 nm, read-out: HEK-TLR7 EC50

Compound: CCCC[C@@H](CCS(C)(=O)=O)Nc1nc(N)nc(C)c1Cc1cc(CC(=O)N[C@@H](CC(N)=O)C(=O)N[C@@H](CCCNC(=N)N)C(=O)N[C@@H](Cc2ccccc2)C(=O)N[C@H](C(=O)N[C@@H](CO)C(=O)N[C@H](C(=O)N[C@@H](Cc2ccccc2)C(=O)N[C@@H](C)C(=O)N[C@@H](CO)C(=O)NCC(=O)N2CCC[C@H]2C(=O)N[C@@H](CO)C(=O)N[C@@H](CCC(N)=O)C(=O)N[C@@H](CCCCN)C(=O)N[C@H](C(=O)N[C@@H](CCC(N)=O)C(=O)N[C@@H](CC(C)C)C(=O)N[C@H](C(=O)N[C@@H](CC(N)=O)C(=O)N[C@@H](CC(N)=O)C(=O)N[C@@H](CC(N)=O)C(=O)NCC(=O)N[C@@H](CO)C(=O)N[C@@H](Cc2c[nH]c3ccccc23)C(=O)N[C@@H](Cc2c[nH]cn2)C(=O)O)C(C)C)[C@@H](C)CC)[C@@H](C)CC)C(C)C)ccc1OC [*AP5] (X1-NRFVSIFASGPSQKIQLVNNNGSWH-OH)
- EC50: 150 nM

Compound: CCCC[C@@H](CCS(C)(=O)=O)Nc1nc(N)nc(C)c1Cc1cc(CC(=O)N[C@@H](CC(C)C)C(=O)N[C@@H](CC(C)C)C(=O)N[C@H](C(=O)N[C@@H](CCCNC(=N)N)C(=O)N[C@H](C(=O)N[C@@H](CC(C)C)C(=O)N[C@H](C(=O)N[C@H](C(=O)N2CCC[C@H]2C(=O)N[C@@H](CCC(N)=O)C(=O)N[C@@H](CO)C(=O)N[C@@H](CC(C)C)C(=O)N[C@@H](CC(=O)O)C(=O)N[C@@H](CO)C(=O)N[C@@H](Cc2c[nH]c3ccccc23)C(=O)N[C@@H](Cc2c[nH]c3ccccc23)C(=O)N[C@H](C(=O)N[C@@H](CO)C(=O)N[C@@H](CC(C)C)C(=O)N[C@@H](CC(N)=O)C(=O)N[C@@H](Cc2ccccc2)C(=O)N[C@@H](CC(C)C)C(=O)NCC(=O)NCC(=O)N[C@@H](CO)C(=O)O)[C@@H](C)O)[C@@H](C)CC)[C@@H](C)O)[C@@H](C)CC)[C@@H](C)O)ccc1OC [*AP9] (X1-LLTRILTIPQSLDSWWTSLNFLGGS-OH)
- EC50: 320 nM

Compound: CCCC[C@@H](CCS(C)(=O)=O)Nc1nc(N)nc(C)c1Cc1cc(CC(=O)N[C@@H](CCC(=O)O)C(=O)N[C@@H](CO)C(=O)N[C@@H](CC(C)C)C(=O)N[C@@H](CCCCN)C(=O)N[C@H](C(=O)N[C@@H](CO)C(=O)N[C@@H](CCC(N)=O)C(=O)N[C@@H](C)C(=O)N[C@H](C(=O)N[C@@H](Cc2c[nH]cn2)C(=O)N[C@@H](C)C(=O)N[C@@H](C)C(=O)N[C@@H](Cc2c[nH]cn2)C(=O)N[C@@H](C)C(=O)N[C@@H](CCC(=O)O)C(=O)N[C@H](C(=O)N[C@@H](CC(N)=O)C(=O)N[C@@H](CCC(=O)O)C(=O)N[C@@H](C)C(=O)NCC(=O)N[C@@H](CCCNC(=N)N)C(=O)N[C@@H](CCC(=O)O)C(=O)N[C@H](C(=O)N[C@H](C(=O)NCC(=O)O)C(C)C)C(C)C)[C@@H](C)CC)C(C)C)[C@@H](C)CC)ccc1OC [*AP10] (X1-ESLKISQAVHAAHAEINEAGREVVG-OH)
- EC50 [1]: 210 nM

Compound: CCCC[C@@H](CCS(C)(=O)=O)Nc1nc(N)nc(C)c1Cc1cc(CC(=O)N[C@@H](CCC(=O)O)C(=O)N[C@@H](CCC(N)=O)C(=O)N[C@@H](CC(C)C)C(=O)N[C@@H](CO)C(=O)N[C@@H](CO)C(=O)N[C@H](C(=O)N[C@@H](CO)C(=O)N[C@@H](CO)C(=O)N[C@@H](Cc2ccccc2)C(=O)N[C@@H](CCC(=O)O)C(=O)N[C@@H](CCCNC(=N)N)C(=O)N[C@@H](Cc2ccccc2)C(=O)N[C@@H](CCC(=O)O)C(=O)N[C@H](C(=O)N[C@@H](Cc2ccccc2)C(=O)N2CCC[C@H]2C(=O)N[C@@H](CCCCN)C(=O)N[C@@H](CCC(=O)O)C(=O)N[C@@H](CO)C(=O)N[C@@H](CO)C(=O)N[C@@H](Cc2c[nH]c3ccccc23)C(=O)N2CCC[C@H]2C(=O)N[C@@H](CC(N)=O)C(=O)N[C@@H](Cc2c[nH]cn2)C(=O)N[C@@H](CC(N)=O)C(=O)O)[C@@H](C)CC)C(C)C)ccc1OC [*AP11] (X1-EQLSSVSSFERFEIFPKESSWPNHN-OH)
- EC50 [1]: 300 nM

Compound: CSCC[C@H](NC(=O)CNC(=O)[C@@H](NC(=O)[C@H](CCCNC(=N)N)NC(=O)[C@@H](NC(=O)[C@H](CC(C)C)NC(=O)[C@H](C)NC(=O)[C@H](CCCNC(=N)N)NC(=O)[C@@H](NC(=O)[C@H](CCCNC(=N)N)NC(=O)[C@H](CCC(N)=O)NC(=O)[C@H](Cc1ccc(O)cc1)NC(=O)[C@@H](NC(=O)[C@@H](NC(=O)[C@H](CC(=O)O)NC(=O)[C@H](CC(N)=O)NC(=O)[C@H](CC(C)C)NC(=O)[C@H](CC(N)=O)NC(=O)[C@H](CO)NC(=O)[C@@H](N)Cc1c[nH]cn1)[C@@H](C)O)[C@@H](C)O)[C@@H](C)O)C(C)C)[C@@H](C)O)C(=O)N[C@@H](CC(=O)O)C(=O)N1CCC[C@H]1C(=O)N[C@@H](CCCNC(=N)N)C(=O)N[C@@H](CCSC)C(=O)N[C@@H](CS)C(=O)O [AP1]
- EC50: > 30000 nM

Compound: CC[C@H](C)[C@H](NC(=O)[C@H](CCCCN)NC(=O)CNC(=O)[C@@H](NC(=O)[C@@H](NC(=O)[C@H](Cc1ccccc1)NC(=O)[C@H](C)NC(=O)[C@H](CCCNC(=N)N)NC(=O)CNC(=O)[C@@H]1CCCN1C(=O)CNC(=O)[C@H](CCCNC(=N)N)NC(=O)[C@H](CCC(N)=O)NC(=O)[C@@H](NC(=O)[C@H](CCCNC(=N)N)NC(=O)[C@@H](NC(=O)[C@H](CO)NC(=O)[C@H](CCCCN)NC(=O)[C@H](CCCNC(=N)N)NC(=O)[C@@H](N)CCCCN)[C@@H](C)CC)[C@@H](C)CC)C(C)C)[C@@H](C)O)C(=O)NCC(=O)N[C@@H](CC(N)=O)C(=O)N[C@@H](CCSC)C(=O)N[C@@H](CCCNC(=N)N)C(=O)N[C@@H](CCC(N)=O)C(=O)O [AP2]
- EC50 [2]: > 30000 nM

Compound: CC[C@H](C)[C@H](NC(=O)[C@H](CC(C)C)NC(=O)[C@@H](NC(=O)[C@H](CC(C)C)NC(=O)[C@H](CC(C)C)NC(=O)[C@H](CC(C)C)NC(=O)CN)C(C)C)C(=O)N[C@@H](Cc1ccc(O)cc1)C(=O)N[C@@H](CC(C)C)C(=O)N[C@@H](Cc1ccc(O)cc1)C(=O)NCC(=O)N1CCC[C@H]1C(=O)N[C@@H](CO)C(=O)N[C@@H](CC(C)C)C(=O)N[C@@H](Cc1ccc(O)cc1)C(=O)N[C@@H](CCCNC(=N)N)C(=O)N[C@@H](CCCNC(=N)N)C(=O)N[C@@H](Cc1ccccc1)C(=O)N[C@@H](Cc1ccccc1)C(=O)N[C@@H](CO)C(=O)N[C@@H](CC(N)=O)C(=O)N[C@@H](CC(=O)O)C(=O)N[C@@H](CS)C(=O)N[C@@H](CS)C(=O)N[C@@H](CO)C(=O)O [AP4] (H-GLLLVLIYLYGPSLYRRFFSNDCCS-OH)
- EC50 [2]: > 30000 nM

Compound: CC[C@H](C)[C@H](NC(=O)[C@H](CCCCN)NC(=O)CNC(=O)[C@@H](NC(=O)[C@@H](NC(=O)[C@@H](NC(=O)[C@H](Cc1ccccc1)NC(=O)[C@H](C)NC(=O)[C@H](CCCNC(=N)N)NC(=O)CNC(=O)[C@@H]1CCCN1C(=O)CNC(=O)[C@H](CCCNC(=N)N)NC(=O)[C@H](CCC(N)=O)NC(=O)[C@@H](NC(=O)[C@H](CCCNC(=N)N)NC(=O)[C@@H](NC(=O)[C@H](CO)NC(=O)[C@H](CCCCN)NC(=O)[C@H](CCCNC(=N)N)NC(=O)[C@@H](N)CCCCN)[C@@H](C)CC)[C@@H](C)CC)C(C)C)[C@@H](C)O)[C@@H](C)CC)C(=O)NCC(=O)N[C@@H](CC(N)=O)C(=O)N[C@@H](CCSC)C(=O)N[C@@H](CCCNC(=N)N)C(=O)O [AP6]
- EC50: > 30000 nM

- EC50 [3]: 100 nM
Compound: CCCC[C@@H](CCS(C)(=O)=O)Nc1nc(N)nc(C)c1Cc1cc(CC(=O)O)ccc1OC [Compound 1, (S)-2-(3-((2-amino-4-methyl-6-((1-(methylsulfonyl)heptan-3-yl)amino)pyrimidin-5-yl)methyl)-4-methoxyphenyl)acetic acid]

- EC50 [3]: 100 nM
Compound: CCCC[C@@H](CCS(C)(=O)=O)Nc1nc(N)nc(C)c1Cc1cc(CC(=O)N[C@@H](C)C(=O)O)ccc1OC [Compound 1-alanine conjugate]

- EC50 [3]: 100 nM
Compound: CCCC[C@@H](CCS(C)(=O)=O)Nc1nc(N)nc(C)c1Cc1cc(CC(=O)NCCCC[C@H](NC(C)=O)C(=O)O)ccc1OC [Compound 1-lysine conjugate]

Compound: DTIWALSVKYGVSVQDIMSWNNLSS [AP7]
- EC50: > 10000 nM
